Read-outs that look alike come from different tables or passages of the source.
Target: human Nav1.7 (Homo sapiens (Human), UniProt Q15858)
Assay: FLIPR or FLIPR TETRA sodium dye assay with KCl and test article pre-incubation
Assay type: cell-based
Settings: read-out: Nav1.7 IC50 (μM) ± SEM
[1] = recombinant human Nav1.7 in HEK293 cells, CoroNa Green sodium dye, veratridine + scorpion venom

human Nav1.7, sequence (Q15858 other isoform, or with tags, fused parts or gaps): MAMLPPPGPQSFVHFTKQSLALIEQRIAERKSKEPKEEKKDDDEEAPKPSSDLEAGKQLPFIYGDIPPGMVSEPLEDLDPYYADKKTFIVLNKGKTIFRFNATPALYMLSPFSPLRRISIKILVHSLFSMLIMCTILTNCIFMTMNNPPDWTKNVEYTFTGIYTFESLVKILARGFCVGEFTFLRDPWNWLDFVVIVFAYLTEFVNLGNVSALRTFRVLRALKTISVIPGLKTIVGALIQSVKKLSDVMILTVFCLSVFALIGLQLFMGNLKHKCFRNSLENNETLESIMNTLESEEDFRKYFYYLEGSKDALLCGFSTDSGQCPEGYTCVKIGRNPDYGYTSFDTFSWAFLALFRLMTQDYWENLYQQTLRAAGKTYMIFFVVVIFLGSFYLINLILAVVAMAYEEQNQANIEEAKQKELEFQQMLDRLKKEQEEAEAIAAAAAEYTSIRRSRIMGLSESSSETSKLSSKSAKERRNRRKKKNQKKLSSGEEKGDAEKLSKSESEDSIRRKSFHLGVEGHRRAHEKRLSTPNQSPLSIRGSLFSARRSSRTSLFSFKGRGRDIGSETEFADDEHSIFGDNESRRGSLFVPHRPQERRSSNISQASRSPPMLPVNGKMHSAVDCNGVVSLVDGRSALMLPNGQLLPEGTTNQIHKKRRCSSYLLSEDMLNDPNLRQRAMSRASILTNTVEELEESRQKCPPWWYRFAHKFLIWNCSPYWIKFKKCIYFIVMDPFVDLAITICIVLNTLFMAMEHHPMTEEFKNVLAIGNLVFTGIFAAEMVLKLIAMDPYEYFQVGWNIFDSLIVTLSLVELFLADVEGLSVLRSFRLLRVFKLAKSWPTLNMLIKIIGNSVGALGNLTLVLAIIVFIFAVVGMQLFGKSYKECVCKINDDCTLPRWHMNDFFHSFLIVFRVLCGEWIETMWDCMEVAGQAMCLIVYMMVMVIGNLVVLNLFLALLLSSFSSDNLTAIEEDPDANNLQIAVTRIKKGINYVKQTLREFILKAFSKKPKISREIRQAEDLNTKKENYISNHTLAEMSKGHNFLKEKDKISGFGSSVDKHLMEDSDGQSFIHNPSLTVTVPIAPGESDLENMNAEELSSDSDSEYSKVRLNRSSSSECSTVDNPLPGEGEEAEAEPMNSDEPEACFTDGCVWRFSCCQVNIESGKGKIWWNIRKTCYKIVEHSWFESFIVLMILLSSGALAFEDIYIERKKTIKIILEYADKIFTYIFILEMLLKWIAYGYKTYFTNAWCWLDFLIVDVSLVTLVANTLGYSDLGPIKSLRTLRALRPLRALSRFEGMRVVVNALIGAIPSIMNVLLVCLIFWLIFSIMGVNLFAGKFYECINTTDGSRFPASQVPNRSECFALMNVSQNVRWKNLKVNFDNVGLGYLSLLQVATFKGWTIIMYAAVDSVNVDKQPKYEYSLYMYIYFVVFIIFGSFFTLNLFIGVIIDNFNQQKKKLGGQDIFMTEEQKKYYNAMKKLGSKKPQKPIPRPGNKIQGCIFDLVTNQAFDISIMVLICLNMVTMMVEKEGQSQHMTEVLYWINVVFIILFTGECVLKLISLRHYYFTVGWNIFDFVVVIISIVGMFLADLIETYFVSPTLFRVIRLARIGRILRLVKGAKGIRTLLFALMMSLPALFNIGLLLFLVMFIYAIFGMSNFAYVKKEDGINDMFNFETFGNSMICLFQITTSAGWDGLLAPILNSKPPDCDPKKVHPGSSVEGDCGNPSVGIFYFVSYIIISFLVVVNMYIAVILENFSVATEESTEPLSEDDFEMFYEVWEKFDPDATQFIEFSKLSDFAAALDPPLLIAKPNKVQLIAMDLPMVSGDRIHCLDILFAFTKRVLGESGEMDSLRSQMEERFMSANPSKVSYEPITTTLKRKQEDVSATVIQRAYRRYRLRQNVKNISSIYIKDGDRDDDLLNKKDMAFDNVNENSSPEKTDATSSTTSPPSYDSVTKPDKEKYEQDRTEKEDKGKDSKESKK

SMILES | IC50 [1] [µM] | IC50 [µM]
NC(=O)CN1CCC(CNc2cc(C(N)=O)nc(-c3ccc(Oc4ccc(F)cc4)cc3)c2)CC1 [compound 52, 4-(((1-(2-amino-2-oxoethyl)piperidin-4-yl)methyl)amino)-6-(4-(4-fluorophenoxy)phenyl) picolinamide] | 0.2 ± 0.08 | –
NC(=O)c1cc(NCCN2CCOCC2)cc(-c2ccc(Oc3ccc(F)cc3)cc2)n1 [compound 53, 6-(4-(4-fluorophenoxy)phenyl)-4-((2-morpholinoethyl)amino) picolinamide] | 0.22 ± 0.06 | –
NC(=O)c1cc(NCCCn2ccnc2)cc(-c2ccc(Oc3ccc(F)cc3)cc2)n1 [compound 54, 4-((3-(1H-imidazol-1-yl)propyl)amino)-6-(4-(4-fluorophenoxy)phenyl) picolinamide] | 0.22 ± 0.06 | –
NC(=O)c1cc(N2CCNCC2)cc(-c2ccc(Oc3ccc(F)cc3)cc2)n1 [compound 55, 6-(4-(4-fluorophenoxy)phenyl)-4-(piperazin-1-yl) picolinamide] | 0.23 ± 0.06 | –
NC(=O)c1cc(N2CCC(C(N)=O)CC2)cc(-c2ccc(Oc3ccc(F)cc3)cc2)n1 [compound 56, 4-(4-carbamoylpiperidin-1-yl)-6-(4-(4-fluorophenoxy)phenyl) picolinamide] | 0.31 ± 0.05 | –
NC(=O)c1cc(NCC2CCNCC2)cc(-c2ccc(Oc3ccc(F)cc3)cc2)n1 [compound 57, 6-(4-(4-fluorophenoxy)phenyl)-4-((piperidin-4-ylmethyl)amino) picolinamide] | – | 0.83 ± 0.02
NC(=O)c1cc(NCCN2CCNC2=O)cc(-c2ccc(Oc3ccc(F)cc3)cc2)n1 [compound 58, 6-(4-(4-fluorophenoxy)phenyl)-4-((2-(2-oxoimidazolidin-1-yl)ethyl)amino) picolinamide] | – | 1.57 ± 0.33
NC(=O)c1cc(N2CCC(C(=O)O)CC2)cc(-c2ccc(Oc3ccc(F)cc3)cc2)n1 [compound 59, 1-(2-carbamoyl-6-(4-(4-fluorophenoxy)phenyl)pyridin-4-yl) piperidine-4-carboxylic acid] | – | 2.28 ± 0.2
NC(=O)c1cc(CNCCN2CCNC2=O)cc(-c2ccc(Oc3ccc(F)cc3)cc2)n1 [compound 60, 6-(4-(4-fluorophenoxy)phenyl)-4-(((2-(2-oxoimidazolidin-1-yl)ethyl)amino)methyl)picolinamide] | 0.16 ± 0.03 | –
O=C1NCCN1CCNCc1cccc(-c2ccc(Oc3ccc(C(F)(F)F)cc3)cc2)n1 [compound 61, 1-(2-(((6-(4-(4-(trifluoromethyl)phenoxy)phenyl)pyridin-2-yl)methyl)amino)ethyl)imidazolidin-2-one] | 0.03 ± 0.01 | –
O=C1NCCN1CCNCc1cccc(-c2ccc(Oc3ccc(F)cc3)cc2)n1 [compound 62, 1-(2-(((6-(4-(4-fluorophenoxy)phenyl)pyridin-2-yl)methyl)amino)ethyl)imidazolidin-2-one] | 0.07 ± 0.02 | –
O=C1NCCN1CCNCCc1cccc(-c2ccc(Oc3ccc(F)cc3)cc2)n1 [compound 64, 1-(2-((2-(6-(4-(4-fluorophenoxy)phenyl)pyridin-2-yl)ethyl)amino)ethyl) imidazolidin-2-one] | – | 0.1 ± 0.3
N#Cc1ccc(Oc2ccc(-c3cccc(CNCCN4CCNC4=O)n3)cc2)c(C(F)(F)F)c1 [compound 65, 4-(4-(6-(((2-(2-oxoimidazolidin-1-yl)ethyl)amino)methyl)pyridin-2-yl)phenoxy)-3-(trifluoromethyl) benzonitrile] | 0.12 ± 0.02 | –
O=C1NCCN1CCNCc1cccc(-c2ccc(Oc3ncc(C(F)(F)F)cc3Cl)cc2)n1 [compound 66, 1-(2-(((6-(4-((3-chloro-5-(trifluoromethyl)pyridin-2-yl)oxy)phenyl)pyridin-2-yl)methyl)amino)ethyl) imidazolidin-2-one] | – | 0.13 ± 0.03
N#Cc1ccc(Oc2ccc(-c3cccc(CNCCN4CCNC4=O)n3)cc2)cc1 [compound 67, 4-(4-(6-(((2-(2-oxoimidazolidin-1-yl)ethyl)amino)methyl)pyridin-2-yl)phenoxy)benzonitrile] | 0.17 ± 0.01 | –
N#CCN(CCN1CCNC1=O)Cc1cccc(-c2ccc(Oc3ccc(F)cc3)cc2)n1 [compound 69, 2-(((6-(4-(4-fluorophenoxy)phenyl)pyridin-2-yl)methyl) (2-(2-oxoimidazolidin-1-yl)ethyl)amino) acetonitrile] | 0.19 ± 0.05 | –
N#Cc1cc(Oc2ccc(-c3cccc(CNCCN4CCNC4=O)n3)cc2)ccc1C(F)(F)F [compound 70, 5-(4-(6-(((2-(2-oxoimidazolidin-1-yl)ethyl)amino)methyl)pyridin-2-yl)phenoxy)-2-(trifluoromethyl) benzonitrile] | – | 0.23 ± 0.08
CS(=O)(=O)c1ccc(Oc2ccc(-c3cccc(CNCCN4CCNC4=O)n3)cc2)cc1 [compound 71, 1-(2-(((6-(4-(4-(methylsulfonyl)phenoxy)phenyl)pyridin-2-yl)methyl)amino)ethyl) imidazolidin-2-one] | – | 0.35 ± 0.05
NC(=O)CN(CCN1CCNC1=O)Cc1cccc(-c2ccc(Oc3ccc(F)cc3)cc2)n1 [compound 72, 2-(((6-(4-(4-fluorophenoxy)phenyl)pyridin-2-yl)methyl)(2-(2-oxoimidazolidin-1-yl)ethyl)amino) acetamide] | 0.76 ± 0.03 | –

SMILES | IC50 [1] [µM] | IC50 [µM]
CC(C)NC(=O)N1CCN(c2cc(C(N)=O)nc(-c3ccc(Oc4ccc(F)cc4)cc3)c2)CC1 [compound 73, 4-(2-carbamoyl-6-(4-(4-fluorophenoxy)phenyl)pyridin-4-yl)-N-isopropylpiperazine-1-carboxamide] | 0.09 ± 0.03 | –
NC(=O)c1cc(N2CCN(c3ncccn3)CC2)cc(-c2ccc(Oc3ccc(F)cc3)cc2)n1 [compound 74, 6-(4-(4-fluorophenoxy)phenyl)-4-(4-(pyrimidin-2-yl)piperazin-1-yl) picolinamide] | 0.09 ± 0.01 | –
NC(=O)c1cc(N2CCN(C(N)=O)CC2)cc(-c2ccc(Oc3ccc(F)cc3)cc2)n1 [compound 76, 4-(2-carbamoyl-6-(4-(4-fluorophenoxy)phenyl)pyridin-4-yl) piperazine-1-carboxamide] | 0.53 ± 0.07 | –
NC(=O)c1cc(N2CCN(C3=NCCCN3)CC2)cc(-c2ccc(Oc3ccc(F)cc3)cc2)n1 [compound 77, 6-(4-(4-fluorophenoxy)phenyl)-4-(4-(1,4,5,6-tetrahydropyrimidin-2-yl)piperazin-1-yl)picolinamide] | 4.27 ± 0.69 | –
O=C(c1cc(N2CCNCC2)cc(-c2ccc(Oc3ccc(F)cc3)cc2)n1)N1CCNCC1 [compound 78, (6-(4-(4-fluorophenoxy)phenyl)-4-(piperazin-1-yl)pyridin-2-yl) (piperazin-1-yl) methanone] | 10 to 20 | –
O=C(NCCN1CCCCC1)c1cc(CO)cc(-c2ccc(Oc3ccc(F)cc3)cc2)n1 [compound 79, 6-(4-(4-fluorophenoxy)phenyl)-4-(hydroxymethyl)-N-(2-(piperidin-1-yl)ethyl)picolinamide] | 0.41 ± 0.03 | –
N=C(N)N1CCN(c2cc(C(N)=O)nc(-c3ccc(Oc4ccc(F)cc4)cc3)c2)CC1 [compound 80, 4-(4-carbamimidoylpiperazin-1-yl)-6-(4-(4-fluorophenoxy)phenyl)picolinamide] | 1.3 ± 0.17 | –
NC(=O)c1cc(C(=O)NCCN2CCCCC2)nc(-c2ccc(Oc3ccc(F)cc3)cc2)c1 [compound 81, 6-(4-(4-fluorophenoxy)phenyl)-N2-(2-(piperidin-1-yl)ethyl)pyridine-2,4-dicarboxamide] | 1.46 ± 0.43 | –
CC(C)NC(=O)N1CCN(c2cc(C#N)nc(-c3ccc(Oc4ccc(F)cc4)cc3)c2)CC1 [compound 82, 4-(2-cyano-6-(4-(4-fluorophenoxy)phenyl)pyridin-4-yl)-N-isopropylpiperazine-1-carboxamide] | 1.94 ± 0.21 | –
N#Cc1cc(N2CCN(C(=N)N)CC2)cc(-c2ccc(Oc3ccc(F)cc3)cc2)n1 [compound 83, 4-(2-cyano-6-(4-(4-fluorophenoxy)phenyl)pyridin-4-yl) piperazine-1-carboximidamide] | 1.95 ± 0.52 | –
NC(=O)c1cc(NC(=O)Nc2ccccc2)cc(-c2ccc(Oc3ccc(F)cc3)cc2)n1 [compound 84, 6-(4-(4-fluorophenoxy)phenyl)-4-(3-phenylureido) picolinamide] | 4.11 ± 0.93 | –
O=C(O)c1cc(C(=O)NCCN2CCCCC2)nc(-c2ccc(Oc3ccc(F)cc3)cc2)c1 [compound 85, 2-(4-(4-fluorophenoxy)phenyl)-6-((2-(piperidin-1-yl)ethyl)carbamoyl)iso nicotinic acid] | 6.59 ± 2.17 | –
O=C(NCCN1CCCCC1)c1cc(-c2nnn[nH]2)cc(-c2ccc(Oc3ccc(F)cc3)cc2)n1 [compound 86, 6-(4-(4-fluorophenoxy)phenyl)-N-(2-(piperidin-1-yl)ethyl)-4-(1H-tetrazol-5-yl) picolinamide] | 9.21 ± 1.15 | –
NC(=O)c1cc(NC(=O)NCC(=O)O)cc(-c2ccc(Oc3ccc(F)cc3)cc2)n1 [compound 87, 2-(3-(2-carbamoyl-6-(4-(4-fluorophenoxy)phenyl)pyridin-4-yl)ureido)acetic acid] | > 20 | –
C[C@H](NCc1cccc(-c2ccc(Oc3ccc(F)cc3)cc2)n1)C(N)=O [compound 88, (S)-2-({6-[4-(4-Fluoro-phenoxyl)-phenyl]-pyridin-2-yl-methyl}-amino) propionamide] | 0.23 ± 0.09 | –
NC(=O)c1cc(-c2ccc(Oc3ccc(F)cc3)cc2)nc([C@@H](O)CO)c1 [compound 89, (R)-2-(1,2-dihydroxyethyl)-6-(4-(4-fluorophenoxy)phenyl) isonicotinamide] | 7.13 ± 0.5 | –
CN(c1ccc(C(=O)O)cc1)c1cc(C(N)=O)nc(-c2ccc(Oc3ccc(F)cc3)cc2)c1 [compound 91, 4-((2-carbamoyl-6-(4-(4-fluorophenoxy)phenyl)pyridin-4-yl)(methyl)amino)benzoic acid] | > 20 | –
O=C(O)CN(c1ccccc1)c1cc(C(=O)O)nc(-c2ccc(Oc3ccc(F)cc3)cc2)c1 [compound 92, 4-((carboxymethyl) (phenyl)amino)-6-(4-(4-fluorophenoxy)phenyl)picolinic acid] | 3.83 ± 0.64 | –
O=C(O)c1cc(-n2cc(C(=O)O)c3ccccc32)cc(-c2ccc(Oc3ccc(F)cc3)cc2)n1 [compound 93, 1-(2-carboxy-6-(4-(4-fluorophenoxy)phenyl)pyridin-4-yl)-1H-indole-3-carboxylic acid] | > 20 | –

Reference: patent publication US9056832B2, “Pyridine compounds and the users thereof” (Purdue Pharma L.P., priority 2010, dated 2015)
